Literature values, collected in patent publication US10059967B2, “Microorganisms and processes for producing terephthalic acid and its salts” (Genomatica, Inc., priority 2012, dated 2018).

Cc1ccc(C(=O)O)cc1 [p-toluate, 4-methylbenzoate]
solubility in aqueous solution (in words): Only slightly soluble
